# How the values were obtained:
# BE(2)-M17 (M17) cells = assay: Method I: Measurement of Fe efflux from cells (57Fe-loaded, ICP-MS of media); format: cell-based, human; details: M17 cells loaded with 20 μM 57Fe, compound 20 μM, 2 h; for activation at 20 µM: Homo sapiens, read-out: Fe-Efflux (% increase of Fe in media relative to cell media in the absence of the compound)
# Procedure: Method I: Measurement of Fe Efflux from Cells
# Compounds of the current invention were assessed for their ability to efflux iron (Fe) from a cell using the following protocol.
# The human neuroblastoma line BE(2)-M17 (M17) cell cultures were acquired from Sigma Aldrich (Catalogue #: 95011816). M17 Cells were maintained in Opti-MEM reduced serum media supplemented with 10% fetal bovine serum (Bovogen, SFBSF) and passaged twice weekly. Cells were cultured at 37° C. in the presence of 5% CO2. Culture supplies were sourced from Thermo Fisher unless otherwise stated.
# A solution of ^57Fe cold isotope was prepared by dissolving ^57Fe metal (>95% enrichment, Trace Sciences International) in concentrated HCl to give a final concentration of 573 mM. From this master solution, a 10 mM working solution was prepared in sterile water. The working solution was used within two months of preparation.
# M17 cells were loaded with iron initially by seeding into 48-well plates at a density of 0.15×10^6 cells per well in 0.5 mL media. After 48 h, old media was discarded. Fresh media was supplemented with 20 μM ^57Fe isotope, from the 10 mM ^57Fe working solution. Cells received 0.2 mL of this ^57Fe enriched media and were returned to the incubator for 20 h. The ability of experimental compounds to efflux iron was determined by the dissolution of compounds in DMSO and diluted in Hanks' Balanced Salt Solution (HBSS) for treatment of M17 cells. After ^57Fe incubation, cells were rinsed twice with HBSS and treated with 0.15 mL trial compound for 2 h at a concentration of 20 μM. All assays included a relevant vehicle (0.4%-0.8% DMSO) as well as a positive control (20 μM). Following the treatment period, 0.1 mL of media was collected from cells and the extracellular ^57Fe content was analysed via inductively coupled mass spectrometry (ICP-MS, Agilent 7700x series instrument).
# To perform this protocol the following supplies were purchased from Sigma Aldrich: anhydrous dimethyl sulfoxide (DMSO, Catalogue #: 276855), Hanks' Balanced Salt Solution supplemented with 20 mM HEPES and 4.2 mM Sodium Bicarbonate (HBSS, pH: 7.4, Catalogue #: H1387).
# After 2 h the Fe levels in the media were measured and the increase determined as a percentage increase relative to the cell media in the absence of the compound.
# Representative data is provided in Table 13 where the % Fe efflux for the specified compounds of the invention lie in the following ranges: A<30%, B 30-100%, C 100-150%; D>150%.
# phospho-GSK-3β = assay: GSK 3b assay: Zn ionophore-enhanced phosphorylation of GSK-3β (AlphaScreen SureFire Phospho-GSK 3β (Ser9) kit) in SH-SY5Y cells; format: cell-based, human; details: test compound 2 μM + ZnCl2 5 μM, 2 h at 37° C.
# Procedure: The phosphorylation of GSK-3β is enhanced when Zn is imported into a cell by a Zn ionophore. This property was measured for the compounds of the current invention and the data presented relative to the know Zn ionophore PBT2 using the following protocol.
# The human neuroblastoma SH-SY5Y cells were obtained from Cell bank Australia (Catalogue number: 94030304). SH-SY5Y cell culture was maintained in DMEM/F12+15% FBS inside an incubator at 37° C. in the presence of 5% CO2. The cells were sub-cultured once a week and the media exchanged once during the week. Cells for the assay were plated at a density of 60,000 cells/well.
# Stock solutions of the samples were prepared as a 5 mM stock in DMSO and a stock solution of 1 mM ZnCl2/3 mM Glutamic acid was prepared in water. Immediately before use the compounds were diluted 1:10 with water before being added to Locke's buffer in a treatment tube. Samples were subsequently treated with either distilled water or the ZnCl2/Glutamic acid solution to yield a treatment solution which has a final concentration of the test compound at 2 μM+/−ZnCl2 at 5 μM.
# The culture media was aspirated from the wells and the media replaced with the treatment solution prepared above. In addition to the relative standard (PBT2+/−ZnCl2), control wells were also included consisting of +/−ZnCl2 at 5 μM with all treatments done in triplicate. The plate was incubated at 37° C. with the treatment solution for 2 h after which time the wells were aspirated and washed with sterile PBS.
# Measurement of the change of phospho-GSK-3β was determined using an AlphaScreen® SureFire® Phospho-GSK […] (Ser9) Kit with the cells being processed as per the manufacturer's instructions using an initial incubation of 2 h/24° C. and a final incubation of 16 h/24° C.
# The fluorescence was measured on an Enspire plate reader. […] Representative data is presented in Table 12 using the following ranges: A<50%, B 50-<100%, C 100-<150%, D>150%.
Structure (SMILES),activation at 20 µM (BE(2)-M17 (M17) cells),GSK-Zn (signal as % of the positive standard PBT2+ZnCl2) (phospho-GSK-3β),Fe-Efflux (% increase of Fe in media relative to cell media in the absence of the compound) (BE(2)-M17 (M17) cells)
O=C(N/N=C1\CCCc2cccnc21)c1ccccc1Cl [Compound 15],> 150%,D (D>150%),
O=C(N/N=C1\CCCc2cccnc21)c1ccncc1 [Compound 3],> 150%,A (A<50%),
O=C(N/N=C1\CCCc2cccnc21)c1ccccn1 [Compound 2],100 to 150%,A (A<50%),
COc1ccccc1C(=O)N/N=C1\CCCc2cccnc21 [Compound 8],100 to 150%,A (A<50%),
O=C(N/N=C1\CCCc2cccnc21)c1ccccc1OCCCN1CCCCC1 [Compound 42],> 150%,,
O=C(N/N=C1\CCOc2cccnc21)c1cccs1 [Compound 178],100 to 150%,,
Cc1nc(C)c(C(=O)N/N=C2\CCCc3cccnc32)s1 [Compound 32],100 to 150%,,
C/C(=N\NC(=O)c1cccc(C)c1)c1ncccn1 [Compound 49],> 150%,B (B 50-<100%),
"COC(=O)CN(/N=C(\C)c1ccccn1)C(=O)c1cc2ccccc2s1 [Compound 147, (E)-Methyl 2-(1-(benzo[b]thiophene-2-carbonyl)-2-(1-(pyridin-2-yl)ethylidene) hydrazinyl) Acetate]",,,A (A<30%)
COc1cccc(C(=O)N/N=C(\C)c2ncccn2)c1 [Compound 47],30 to 100%,C (C 100-<150%),
CN(C)CCOc1ccccc1C(=O)N/N=C1\CCCc2cccnc21.Cl [Compound 39],> 150%,A (A<50%),
COc1ccc(C(=O)N/N=C2\CCCc3cccnc32)cc1 [Compound 9],30 to 100%,A (A<50%),
CCOc1ccccc1C(=O)N/N=C1\CCCc2cccnc21 [Compound 4],30 to 100%,A (A<50%),
C/C(=N\NC(=O)c1snnc1C)c1nccnc1C [Compound 57],100 to 150%,,
COc1ccc(C(=O)N/N=C2\CCCc3cccnc32)cc1OC [Compound 7],30 to 100%,A (A<50%),
COc1ccccc1C(=O)N/N=C(\C)c1cc(C)ccn1 [Compound 55],30 to 100%,,
O=C(N/N=C1\CCCc2cccnc21)c1ccccc1 [Compound 10],30 to 100%,B (B 50-<100%),

Structure (SMILES),activation at 20 µM (BE(2)-M17 (M17) cells),GSK-Zn (signal as % of the positive standard PBT2+ZnCl2) (phospho-GSK-3β),Fe-Efflux (% increase of Fe in media relative to cell media in the absence of the compound) (BE(2)-M17 (M17) cells)
Cc1nnsc1C(=O)N/N=C1\CCCc2cccnc21 [Compound 23],> 150%,C (C 100-<150%),
Cc1ccc(C(=O)N/N=C/c2nccn2C)cn1 [Compound 117],< 30%,,
Cc1nnsc1C(=O)N/N=C(/c1ncccn1)C(C)C [Compound 52],30 to 100%,B (B 50-<100%),
"O=C(N/N=C1\CCOc2cccnc21)c1cccnc1 [Compound 171, (E)-N′-(2,3-dihydro-4H-pyrano[3,2-b]pyridin-4-ylidene)nicotinohydrazide]",< 30%,,
C/C(=N\NC(=O)c1snnc1C)c1ncccn1 [Compound 48],> 150%,C (C 100-<150%),
CCOC(=O)C1CCc2cccnc2/C1=N/NC(=O)c1snnc1C (centres unmarked) [Compound 31],30 to 100%,,
Cc1cc(C(=O)N/N=C2\CCCc3cccnc32)no1 [Compound 33],> 150%,,
COc1cccc(C(=O)N/N=C2\CCCc3cccnc32)c1 [Compound 6],< 30%,A (A<50%),
"O=C(N/N=C1\CCCc2cccnc21)c1cccnc1 [Compound 1, (E)-N′-(6,7-Dihydroquinolin-8(5H)-ylidene)nicotinohydrazide]",> 150%,A (A<50%),
Cc1nnsc1C(=O)N/N=C1\CCOc2cccnc21 [Compound 172],100 to 150%,,
C/C(=N\NC(=O)c1cccc(C)c1)c1nccnc1C [Compound 58],< 30%,,
Cc1cccc(C(=NNC(=O)c2ccccc2C)c2cccc(C)n2)n1 [Compound 122],< 30%,A (A<50%),
COc1cccc(C(=O)N/N=C(/c2ncccn2)C(C)C)c1 [Compound 50],< 30%,C (C 100-<150%),
O=C(N/N=C/c1cn2ccccc2n1)c1cc2ccccc2s1 [Compound 138],< 30%,,
O=C(N/N=C1\CCCc2cccnc21)c1ccccc1OCCN1CCCCC1 [Compound 40],> 150%,,
C/C(=N\NC(=O)c1snnc1C)c1ccc2ccccc2n1 [Compound 91],30 to 100%,C (C 100-<150%),
C/C(=N\NC(=O)c1cc2c(s1)-c1ccccc1OC2)c1nc(C)cs1 [Compound 101],< 30%,,
